Earlier results in patent publication US7947458B1, “Placental human neurokinin B precursor” (Perinatal Diagnostics Limited, priority 1999, dated 2011).
Like-named read-outs stand apart in the source and are kept apart here. Each block holds one compound with its values, some of them ahead of it. Ends that are not written are not given here.

What was measured:
NK1 receptor = NK1 receptor (Homo sapiens, UniProt P25103)
NK2 receptors = target: T1, NK2 receptors (Homo sapiens, UniProt P21452)
T1 sequence (P21452 1-398): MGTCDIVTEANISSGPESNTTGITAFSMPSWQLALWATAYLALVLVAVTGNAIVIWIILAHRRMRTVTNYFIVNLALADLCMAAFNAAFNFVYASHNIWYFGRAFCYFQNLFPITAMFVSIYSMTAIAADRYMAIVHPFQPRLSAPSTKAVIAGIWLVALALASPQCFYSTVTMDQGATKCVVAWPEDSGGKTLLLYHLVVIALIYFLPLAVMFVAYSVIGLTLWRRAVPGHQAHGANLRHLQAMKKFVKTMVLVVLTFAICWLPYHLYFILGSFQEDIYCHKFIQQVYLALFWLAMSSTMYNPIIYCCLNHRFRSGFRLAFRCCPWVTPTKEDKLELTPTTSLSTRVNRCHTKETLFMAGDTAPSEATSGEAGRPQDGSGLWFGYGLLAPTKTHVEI

[1] = dog, in vivo
NK3 receptor = target: T2, NK3 receptor (Homo sapiens, UniProt P29371)
T2 sequence (P29371 1-465): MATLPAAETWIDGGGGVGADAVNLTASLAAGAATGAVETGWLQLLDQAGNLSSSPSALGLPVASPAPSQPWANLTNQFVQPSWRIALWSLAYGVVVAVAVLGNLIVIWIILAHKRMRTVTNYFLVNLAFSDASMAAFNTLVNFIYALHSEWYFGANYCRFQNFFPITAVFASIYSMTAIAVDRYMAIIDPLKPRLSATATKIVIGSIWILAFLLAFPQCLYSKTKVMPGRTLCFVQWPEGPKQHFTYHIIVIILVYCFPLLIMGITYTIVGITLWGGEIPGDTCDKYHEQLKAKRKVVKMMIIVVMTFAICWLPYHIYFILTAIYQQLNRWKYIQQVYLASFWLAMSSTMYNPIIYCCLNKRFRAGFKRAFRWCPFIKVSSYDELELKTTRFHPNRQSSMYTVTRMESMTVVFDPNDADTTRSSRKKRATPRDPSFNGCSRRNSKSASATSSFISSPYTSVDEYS

[2] = intravenous injections, guinea pigs
[3] = intravenous infusion, rats

Chain of NK1 receptor (P25103 whole entry, species assumed): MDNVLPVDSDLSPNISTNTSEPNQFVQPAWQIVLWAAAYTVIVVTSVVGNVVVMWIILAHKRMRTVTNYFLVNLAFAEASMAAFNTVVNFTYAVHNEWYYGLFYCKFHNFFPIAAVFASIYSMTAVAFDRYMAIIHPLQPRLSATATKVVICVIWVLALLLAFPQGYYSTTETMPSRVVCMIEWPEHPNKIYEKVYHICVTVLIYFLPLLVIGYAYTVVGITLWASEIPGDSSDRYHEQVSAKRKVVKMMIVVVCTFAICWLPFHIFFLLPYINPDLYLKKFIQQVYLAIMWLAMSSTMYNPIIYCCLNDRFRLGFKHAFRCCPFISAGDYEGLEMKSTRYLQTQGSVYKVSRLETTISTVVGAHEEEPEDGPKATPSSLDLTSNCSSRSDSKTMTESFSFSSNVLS

affinity for the NK1 receptor (NK1 receptor): high affinity
Compound: CN(Cc1ccccc1)C(=O)[C@H](Cc1ccc2ccccc2c1)NC(=O)[C@@H]1C[C@@H](O)CN1C(=O)c1cn(C)c2ccccc12 [FK 888]

affinity and selectivity for NK2 receptors (NK2 receptors): high affinity and selectivity
Compound: CC(=O)NC1(c2ccccc2)CCN(CC[C@H](CN(C)C(=O)c2ccccc2)c2ccc(Cl)c(Cl)c2)CC1 [SR 48968]

Compound: neurokinin A (HKTDSFVGLM-NH2; ends and bridges not checked; UniProt P20366 98-107, looked up) [substance K, tachykinin designated substance K or neurokinin A]
effect on heart rate [1]: slow down the heart rate

potency rank among tachykinins at the NK3 receptor (NK3 receptor): most potent member of the family
Compound: neurokinin B [NKB]
vasoconstriction, potency rank among neurokinins (mesenteric vascular bed): most potent neurokinin to cause vasoconstriction | contraction, potency rank among neurokinins (hepatic portal vein): most potent neurokinin | effect on blood pressure [2]: dose related hypertension | effect on blood pressure [3]: increase in blood pressure

Compound: substance P (RPKPQQFFGLM-NH2; ends and bridges not checked; UniProt P20366 58-68, looked up)
effect on heart rate [1]: slow down the heart rate
